Source: US20100267713A1, “4,4-DISUBSTITUTED PIPERIDINES” (priority 2007, published 2010)

Target: T1, renin (Homo sapiens, UniProt P00797)
T1 construct: This test measures the formation of angiotensin I in human plasma; from tissue; host or cells: human plasma
T1 sequence (P00797 67-406): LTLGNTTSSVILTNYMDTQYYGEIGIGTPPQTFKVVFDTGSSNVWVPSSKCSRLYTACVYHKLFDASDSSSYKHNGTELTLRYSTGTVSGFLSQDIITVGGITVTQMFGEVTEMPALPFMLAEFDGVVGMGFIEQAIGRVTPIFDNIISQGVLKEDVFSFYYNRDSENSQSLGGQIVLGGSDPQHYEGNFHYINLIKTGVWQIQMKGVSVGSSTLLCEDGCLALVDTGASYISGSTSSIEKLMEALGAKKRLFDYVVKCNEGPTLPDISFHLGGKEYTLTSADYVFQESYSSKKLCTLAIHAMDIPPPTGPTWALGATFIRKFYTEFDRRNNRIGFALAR
Experiment: formation of angiotensin I in human plasma, radioimmunoassay (Nussberger et al.)
Type: biochemical
Settings: read-out: IC50, inhibition of the formation of angiotensin I
Experimental: The effect of renin inhibitors is detected inter alia experimentally by means of in vitro tests where the reduction in the formation of angiotensin I is measured in various systems (human plasma, purified human renin together with synthetic or natural renin substrate). The following in vitro test of Nussberger et al. (1987) J. Cardiovascular Pharmacol., Vol. 9, pp. 39-44, is used inter alia. This test measures the formation of angiotensin I in human plasma. The amount of angiotensin I formed is determined in a subsequent radioimmunoassay. The effect of inhibitors on the formation of angiotensin I is tested in this system by adding various concentrations of these substances. The IC50 is defined as the concentration of the particular inhibitor which reduces the formation of angiotensin I by 50%. The compounds of the present invention show inhibitory effects in the in vitro systems at minimal concentrations of about 10^−6 to about […].

Q: With `CCCc1nc(COC[C@@H](C)OCC)ccc1[C@@]1(O)CCNC[C@@H]1OCc1ccc2c(c1)N(CCCOC)CCO2` [Example 501, (3′S,4′S)-6-((R)-2-Ethoxy-propoxymethyl)-3′-[4-(3-methoxy-propyl)-3,4-dihydro-2H-benzo[1,4]oxazin-6-ylmethoxy]-2-propyl-2′,3′,5′,6′-tetrahydro-1′H-[3,4′]bipyridinyl-4′-ol] as the molecule, how does the IC50 read?
A: 48 nM
